Where a name gives a salt, the structure may show the parent alone. Read-outs that look alike come from different tables or passages of the source.
Tested on: lymphocytic leukemia P388
Experiment: Lymphocytic leukemia P388 test (intraperitoneal administration)
Assay type: in vivo, DBA/2 mice
Method: The animals used are DBA/2 mice all of one sex, weighing a minimum of 17 g. and all within a 3 gram weight range. There are 5 or 6 animals per test group. The tumor transplant is by intraperitoneal injection of 0.1 ml. of dilute ascitic fluid containing 10^6 cells of lymphocytic leukemia P388. The test compounds are administered intraperitoneally on days one, 5 and 9 (relative to tumor inoculation) at various doses. The animals are weighed and survivors are recorded on a regular basis for 30 days. The median survival time and the ratio of survival time for treated (T)/control (C) animals are calculated.

[1] = 0.78 mg./kg. i.p., days 1, 5 and 9
[2] = 1.56 mg./kg. i.p., days 1, 5 and 9
[3] = 3.1 mg./kg. i.p., days 1, 5 and 9
[4] = 6.2 mg./kg. i.p., days 1, 5 and 9
[5] = 12.5 mg./kg. i.p., days 1, 5 and 9
[6] = 25 mg./kg. i.p., days 1, 5 and 9
[7] = Mus musculus, P388, ip, 0.78 mg./kg. i.p., days 1, 5 and 9, efficacy ≥125%, read-out: T/C × 100
[8] = Mus musculus, P388, ip, 1.56 mg./kg. i.p., days 1, 5 and 9, efficacy ≥125%, read-out: T/C × 100
[9] = Mus musculus, P388, ip, 3.1 mg./kg. i.p., days 1, 5 and 9, efficacy ≥125%, read-out: T/C × 100
[10] = Mus musculus, P388, ip, 6.2 mg./kg. i.p., days 1, 5 and 9, efficacy ≥125%, read-out: T/C × 100
[11] = Mus musculus, P388, ip, 12.5 mg./kg. i.p., days 1, 5 and 9, efficacy ≥125%, read-out: T/C × 100
[12] = Mus musculus, P388, ip, 25 mg./kg. i.p., days 1, 5 and 9, efficacy ≥125%, read-out: T/C × 100
[13] = 50 mg./kg. i.p., days 1, 5 and 9
[14] = 100 mg./kg. i.p., days 1, 5 and 9
[15] = 200 mg./kg. i.p., days 1, 5 and 9
[16] = Mus musculus, P388, ip, 50 mg./kg. i.p., days 1, 5 and 9, efficacy ≥125%, read-out: T/C × 100
[17] = Mus musculus, P388, ip, 100 mg./kg. i.p., days 1, 5 and 9, efficacy ≥125%, read-out: T/C × 100
[18] = Mus musculus, P388, ip, 200 mg./kg. i.p., days 1, 5 and 9, efficacy ≥125%, read-out: T/C × 100
[19] = 6.25 mg./kg. i.p., days 1, 5 and 9
[20] = Mus musculus, P388, ip, 6.25 mg./kg. i.p., days 1, 5 and 9, efficacy ≥125%, read-out: T/C × 100
[21] = Mus musculus, P388, ip, read-out: T/C × 100

Row | Compound | Median Survival Time [1] | Median Survival Time [2] | Median Survival Time [3] | Median Survival Time [4] | Median Survival Time [5] | Median Survival Time [6] | response vs control in vivo at 0.78 mg/kg [7] | response vs control in vivo at 1.56 mg/kg [8] | response vs control in vivo at 3.1 mg/kg [9] | response vs control in vivo at 6.2 mg/kg [10] | response vs control in vivo at 12.5 mg/kg [11] | response vs control in vivo at 25 mg/kg [12] | Median Survival Time [13] | Median Survival Time [14] | Median Survival Time [15] | response vs control in vivo at 50 mg/kg [16] | response vs control in vivo at 100 mg/kg [17] | response vs control in vivo at 200 mg/kg [18] | Median Survival Time [19] | response vs control in vivo at 6.25 mg/kg [20] | also measured
1 | CC(O)CNCCNc1ccc(NCCNCC(C)O)c2c1C(=O)c1c(O)ccc(O)c1C2=O.Cl.Cl (stereo not drawn) [1,4-Bis[2-(2-hydroxy-1-propylamino)ethylamino]-5,8-dihydroxyanthraquinone dihydrochloride] | 19.0 days | 19.0 days | 22.0 days | 23.0 days | 24.0 days | 12.0 days | 190% | 190% | 220% | 230% | 240% | 120% | – | – | – | – | – | – | – | – | Median Survival Time (0.39 mg./kg. i.p., days 1, 5 and 9): 17.5 days; response vs control in vivo at 0.39 mg/kg (Mus musculus, P388, ip, 0.39 mg./kg. i.p., days 1, 5 and 9, efficacy ≥125%, read-out: T/C × 100): 175%
2 | O=C1C2=C(NCCN(CCO)CCO)CCC(NCCN(CCO)CCO)=C2C(=O)c2c(O)ccc(O)c21 [Leuco-1,4-bis[2-[di(β-hydroxyethyl)amino]ethylamino]-5,8-dihydroxyanthraquinone] | – | – | – | 12.0 days | 13.5 days | 15.0 days | – | – | – | 120% | 135% | 150% | 16.0 days | 17.0 days | 19.0 days | 160% | 170% | 190% | – | – | –
3 | CC(O)CNCCNC1=C2C(=O)c3c(O)ccc(O)c3C(=O)C2=C(NCCNCC(C)O)CC1 (stereo not drawn) [Leuco-1,4-bis[2-(2-hydroxy-1-propylamino)ethylamino]-5,8-dihydroxyanthraquinone] | – | – | – | – | 21.5 days | 20.5 days | – | – | – | – | 195% | 186% | 24.0 days | 26.5 days | 9.0 days | 218% | 241% | 82% | 20.0 days | 182% | –
4 | Cl.Cl.O=C1c2c(O)ccc(O)c2C(=O)c2c(NCCNCCCO)ccc(NCCNCCCO)c21 [1,4-Bis[2-(3-hydroxy-1-propylamino)ethylamino]-5,8-dihydroxyanthraquinone dihydrochloride] | 21.5 days | 22.0 days | 25.0 days | – | > 30.0 days | 8.5 days | 195% | – | 227% | – | > 273% | 77% | – | – | – | – | – | – | 26.0 days | 236% | response vs control in vivo at 1.56 mg/kg [21]: 200%
5 | O=C1C2=C(NCCNCCCO)CCC(NCCNCCCO)=C2C(=O)c2c(O)ccc(O)c21 [Leuco-1,4-bis[2-(3-hydroxy-1-propylamino)ethylamino]-5,8-dihydroxyanthraquinone] | 18.0 days | 19.5 days | 18.5 days | – | 19.5 days | 22.0 days | 164% | 177% | 168% | – | 177% | – | 34.0 days | 38.0 days | 14.0 days | 309% | 345% | 127% | 16.5 days | 150% | response vs control in vivo at 25 mg/kg [21]: 200%
6 | Cl.Cl.O=C1c2c(O)ccc(O)c2C(=O)c2c(NCCN(CCO)CCO)ccc(NCCN(CCO)CCO)c21 [1,4-Bis[2-[di(β-hydroxyethyl)amino]ethylamino]-5,8-dihydroxyanthraquinone dihydrochloride] | 14.5 days | 16.0 days | 19.0 days | 18.5 days | 18.5 days | 21.5 days | 161% | 178% | 211% | 206% | 206% | 239% | 20.5 days | 22.0 days | > 30.0 days | 228% | 244% | > 333% | – | – | –
7 | O=C1C2=C(NCCN3CCOCC3)CCC(NCCN3CCOCC3)=C2C(=O)c2c(O)ccc(O)c21 [Leuco-1,4-bis(2-morpholinoethylamino)-5,8-dihydroxyanthraquinone] | – | – | – | – | – | 12.0 days | – | – | – | – | – | 126% | 11.0 days | 12.0 days | 13.0 days | 116% | 126% | 137% | – | – | –
8 | O=C1c2c(O)ccc(O)c2C(=O)c2c(NCCNCCN3CCOCC3)ccc(NCCNCCN3CCOCC3)c21 [1,4-Bis[2-[2-(1-morpholino)ethylamino]ethylamino]-5,8-dihydroxyanthraquinone tetrahydrochloride] | – | – | 13.0 days | 14.0 days | 15.0 days | 19.5 days | – | – | 130% | 140% | 150% | 195% | 18.5 days | 20.0 days | 9.5 days | 185% | – | 95% | – | – | response vs control in vivo at 100 mg/kg [21]: 200%
9 | O=C1c2c(O)ccc(O)c2C(=O)c2c(NCCN3CCOCC3)ccc(NCCN3CCOCC3)c21 [1,4-Bis(2-morpholinoethylamino)-5,8-dihydroxyanthraquinone] | – | – | – | – | – | – | – | – | – | – | – | – | – | 12.0 days | 14.0 days | – | 126% | 147% | – | – | –
10 | CNCCNCCNc1ccc(NCCNCCNC)c2c1C(=O)c1c(O)ccc(O)c1C2=O.Cl.Cl.Cl.Cl [1,4-Bis[2-(2-methylaminoethylamino)ethylamino]-5,8-dihydroxyanthraquinone Tetrahydrochloride] | – | 13.0 days | – | – | 17.0 days | 19.5 days | – | 130% | – | – | 170% | 195% | 22.0 days | 22.0 days | – | 220% | 220% | – | 16.0 days | 160% | Median Survival Time (1.12 mg./kg. i.p., days 1, 5 and 9): 13.5 days; response vs control in vivo at 1.12 mg/kg (Mus musculus, P388, ip, 1.12 mg./kg. i.p., days 1, 5 and 9, efficacy ≥125%, read-out: T/C × 100): 135%

Reference: patent US4526989A, “1,4-Bis (substituted-amino)-5,8-dihydroxy-anthraquinones and leuco bases thereof” (priority 1979, dated 1985)
